One substance from US20070259329A1, “Anergy-inducing cellular composition” (BioVerde. Inc., priority 2006, published 2007) can be followed below.

The test concerns BALB/c (stimulator cells) and C57BI/6 (responder cells) splenocytes. Nature of the test: One-way mixed lymphocyte reaction (MLR). It counts as cell-based, murine. To be noted: stimulator or responder cells treated with 100, 200 ppm EGCG, 4-8 degree C., 1 hour, 72 hours culture, FIG. 3.

On to (−)-epigallocatechin-3-o-gallate [EGCG], for which the proliferation of splenocytes result is “significantly decreased”.
